Source: patent US20050075375A1 (priority 2003, published 2005)

Tested on: monocistronic NK5.1 HCV replicon in Huh7 cells
Assay: HCV replicon assay, monocistronic replicon cell line
Format: cell-based, hepatitis C virus
Conditions: Hepatitis C virus, Huh-7, 72 h; table T3 (compounds 471-640); monocistronic replicon in Huh7 cells, 3 days incubation, HCV RNA/GAPDH RNA by TaqMan RT-PCR; read-out: Mono EC50 Median
In short: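 EC50 derives from the HCV RNA/GAPDH RNA ratio by one-step TaqMan RT-PCR, relative to DMSO-only wells. Compounds (six half-log concentrations, 0.6% DMSO) were incubated 3 days at 37 °C with NK5.1 monocistronic replicon Huh7 cells plated a day earlier.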

Compound `Fc1cc(-c2nc(-c3ccc(C(F)(F)F)cn3)n[nH]2)ccc1-c1ccccc1` [Compound 514, 2-[5-(2-Fluoro-biphenyl-4-yl)-1H-[1,2,4]triazol-3-yl]-5-trifluoromethyl-pyridine] has an EC50 of over 19 µM.
`Oc1ccc(Br)cc1-c1nc(-c2ccc(C(F)(F)F)cn2)n[nH]1` [Compound 515, 4-Bromo-2-[5-(5-trifluoromethyl-pyridin-2-yl)-2H-[1,2,4]triazol-3-yl]-phenol] showed an EC50 of over 19 µM.
For `Cc1ccc(O)c(-c2nc(-c3ccc(C(F)(F)F)cn3)n[nH]2)c1` [Compound 516, 4-Methyl-2-[5-(5-trifluoromethyl-pyridin-2-yl)-2H-[1,2,4]triazol-3-yl]-phenol], the EC50 was over 19 µM.
`COc1ccc(-c2nc(-c3ccc(C(F)(F)F)cn3)n[nH]2)c(O)c1` [Compound 517, 5-Methoxy-2-[5-(5-trifluoromethyl-pyridin-2-yl)-2H-[1,2,4]triazol-3-yl]-phenol] gave an EC50 of over 19 µM.
With `Oc1ccccc1-c1nc(-c2ccc(C(F)(F)F)cn2)n[nH]1` [Compound 518, 2-[5-(5-trifluoromethyl-pyridin-2-yl)-2H-[1,2,4]triazol-3-yl]-phenol] the EC50 was over 19 µM.
In the case of `COc1cccc(-c2nc(-c3ccc(C(F)(F)F)cn3)n[nH]2)c1O` [Compound 519, 6-Methoxy-2-[5-(5-trifluoromethyl-pyridin-2-yl)-2H-[1,2,4]triazol-3-yl]-phenol], the EC50 is reported as over 19 µM.
`O=[N+]([O-])c1cccc(-c2nc(-c3ccc(C(F)(F)F)cn3)n[nH]2)c1` [Compound 520, 2-[5-(3-Nitro-phenyl)-1H-[1,2,4]triazol-3-yl]-5-trifluoromethyl-pyridine] gave an EC50 of over 19 µM.
`CCN(CC)c1ccc(-c2nc(-c3ccc(C(F)(F)F)cn3)n[nH]2)c(O)c1` [Compound 521, 5-Diethylamino-2-[5-(5-trifluoromethyl-pyridin-2-yl)-2H-[1,2,4]triazol-3-yl]-phenol] gave an EC50 of over 19 µM.
Compound `Oc1ccc(O)c(-c2nc(-c3ccc(C(F)(F)F)cn3)n[nH]2)c1` [Compound 522, 4-Hydroxy-2-[5-(5-trifluoromethyl-pyridin-2-yl)-2H-[1,2,4]triazol-3-yl]-phenol] has an EC50 of over 19 µM.
In the case of `COc1cccc(-c2nc(-c3ccc(C(F)(F)F)cn3)n[nH]2)c1` [Compound 523, 2-[5-(3-Methoxy-phenyl)-1H-[1,2,4]triazol-3-yl]-5-trifluoromethyl-pyridine], the EC50 is reported as over 19 µM.
With `COc1ccc(F)c(-c2nc(-c3ccc(C(F)(F)F)cn3)n[nH]2)c1` [Compound 524, 2-[5-(2-Fluoro-5-methoxy-phenyl)-1H-[1,2,4]triazol-3-yl]-5-trifluoromethyl-pyridine] the EC50 was over 19 µM.
Compound `Oc1ccc2ccccc2c1-c1nc(-c2ccc(C(F)(F)F)cn2)n[nH]1` [Compound 525, 1-[5-(5-trifluoromethyl-pyridin-2-yl)-2H-[1,2,4]triazol-3-yl]-naphthalen-2-ol] has an EC50 of over 19 µM.
`FC(F)(F)c1ccc(-c2n[nH]c(-c3cccc(Br)c3)n2)nc1` [Compound 526, 2-[5-(3-Bromo-phenyl)-1H-[1,2,4]triazol-3-yl]-5-trifluoromethyl-pyridine] showed an EC50 of over 19 µM.
`FC(F)(F)c1ccc(-c2n[nH]c(-c3c(Cl)cccc3Cl)n2)nc1` [Compound 527, 2-[5-(2,6-Dichloro-phenyl)-1H-[1,2,4]triazol-3-yl]-5-trifluoromethyl-pyridine] was tested, and the EC50 was over 19 µM.
Work on `Fc1cc(Br)ccc1-c1nc(-c2ccc(C(F)(F)F)cn2)n[nH]1` [Compound 528, 2-[5-(4-Bromo-2-fluoro-phenyl)-1H-[1,2,4]triazol-3-yl]-5-trifluoromethyl-pyridine] yielded an EC50 of over 19 µM.
`COc1ccc(Br)cc1-c1nc(-c2ccc(C(F)(F)F)cn2)n[nH]1` [Compound 529, 2-[5-(5-Bromo-2-methoxy-phenyl)-1H-[1,2,4]triazol-3-yl]-5-trifluoromethyl-pyridine] gave an EC50 of over 19 µM.
`FC(F)(F)c1cccnc1-c1n[nH]c(-c2cccc3ccccc23)n1` [Compound 530, 2-(5-Naphthalen-1-yl-1H-[1,2,4]triazol-3-yl)-3-trifluoromethyl-pyridine] was tested, and the EC50 was over 19 µM.
Compound `CC(C)(C)c1ccc(O)c(-c2nc(-c3ncccc3C(F)(F)F)n[nH]2)c1` [Compound 531, 4-tert-Butyl-2-[5-(3-trifluoromethyl-pyridin-2-yl)-2H-[1,2,4]triazol-3-yl]-phenol] has an EC50 of over 19 µM.
For `O=[N+]([O-])c1ccc(O)c(-c2nc(-c3ncccc3C(F)(F)F)n[nH]2)c1` [Compound 532, 4-Nitro-2-[5-(3-trifluoromethyl-pyridin-2-yl)-2H-[1,2,4]triazol-3-yl]-phenol], the EC50 was over 19 µM.
For `Oc1ccc(F)cc1-c1nc(-c2ncccc2C(F)(F)F)n[nH]1` [Compound 533, 4-Fluoro-2-[5-(3-trifluoromethyl-pyridin-2-yl)-2H-[1,2,4]triazol-3-yl]-phenol], the EC50 was over 19 µM.
For `COc1ccc(O)c(-c2nc(-c3ncccc3C(F)(F)F)n[nH]2)c1` [Compound 534, 4-Methoxy-2-[5-(3-trifluoromethyl-pyridin-2-yl)-2H-[1,2,4]triazol-3-yl]-phenol], the EC50 was 2.3 µM.
Work on `Oc1ccc(Cl)cc1-c1nc(-c2ncccc2C(F)(F)F)n[nH]1` [Compound 535, 4-Chloro-2-[5-(3-trifluoromethyl-pyridin-2-yl)-2H-[1,2,4]triazol-3-yl]-phenol] yielded an EC50 of 4.1 µM.
Work on `CCOc1cccc(-c2nc(-c3ncccc3C(F)(F)F)n[nH]2)c1O` [Compound 536, 6-Ethoxy-2-[5-(3-trifluoromethyl-pyridin-2-yl)-2H-[1,2,4]triazol-3-yl]-phenol] yielded an EC50 of over 19 µM.
Compound `Oc1cc(OCc2ccccc2)ccc1-c1nc(-c2ncccc2C(F)(F)F)n[nH]1` [Compound 537, 5-Benzyloxy-2-[5-(3-trifluoromethyl-pyridin-2-yl)-2H-[1,2,4]triazol-3-yl]-phenol] has an EC50 of over 19 µM.
Work on `Fc1cc(-c2nc(-c3ncccc3C(F)(F)F)n[nH]2)ccc1-c1ccccc1` [Compound 538, 2-[5-(2-Fluoro-biphenyl-4-yl)-1H-[1,2,4]triazol-3-yl]-3-trifluoromethyl-pyridine] yielded an EC50 of over 19 µM.
`Oc1ccc(Br)cc1-c1nc(-c2ncccc2C(F)(F)F)n[nH]1` [Compound 539, 4-Bromo-2-[5-(3-trifluoromethyl-pyridin-2-yl)-2H-[1,2,4]triazol-3-yl]-phenol] showed an EC50 of 0.35 µM.
With `Cc1ccc(O)c(-c2nc(-c3ncccc3C(F)(F)F)n[nH]2)c1` [Compound 540, 4-Methyl-2-[5-(3-trifluoromethyl-pyridin-2-yl)-2H-[1,2,4]triazol-3-yl]-phenol] the EC50 was over 19 µM.
`COc1ccc(-c2nc(-c3ncccc3C(F)(F)F)n[nH]2)c(O)c1` [Compound 541, 5-Methoxy-2-[5-(3-trifluoromethyl-pyridin-2-yl)-2H-[1,2,4]triazol-3-yl]-phenol] gave an EC50 of over 19 µM.
Compound `Oc1ccccc1-c1nc(-c2ncccc2C(F)(F)F)n[nH]1` [Compound 542, 2-[5-(3-trifluoromethyl-pyridin-2-yl)-2H-[1,2,4]triazol-3-yl]-phenol] has an EC50 of over 19 µM.
For `COc1cccc(-c2nc(-c3ncccc3C(F)(F)F)n[nH]2)c1O` [Compound 543, 6-Methoxy-2-[5-(3-trifluoromethyl-pyridin-2-yl)-2H-[1,2,4]triazol-3-yl]-phenol], the EC50 was over 19 µM.
Compound `O=[N+]([O-])c1cccc(-c2nc(-c3ncccc3C(F)(F)F)n[nH]2)c1` [Compound 544, 2-[5-(3-Nitro-phenyl)-1H-[1,2,4]triazol-3-yl]-3-trifluoromethyl-pyridine] has an EC50 of over 19 µM.
Compound `CCN(CC)c1ccc(-c2nc(-c3ncccc3C(F)(F)F)n[nH]2)c(O)c1` [Compound 545, 5-Diethylamino-2-[5-(3-trifluoromethyl-pyridin-2-yl)-2H-[1,2,4]triazol-3-yl]-phenol] has an EC50 of over 19 µM.
For `Oc1ccc(O)c(-c2nc(-c3ncccc3C(F)(F)F)n[nH]2)c1` [Compound 546, 4-Hydroxy-2-[5-(3-trifluoromethyl-pyridin-2-yl)-2H-[1,2,4]triazol-3-yl]-phenol], the EC50 was over 19 µM.
Compound `COc1cccc(-c2nc(-c3ncccc3C(F)(F)F)n[nH]2)c1` [Compound 547, 2-[5-(3-Methoxy-phenyl)-1H-[1,2,4]triazol-3-yl]-3-trifluoromethyl-pyridine] has an EC50 of over 19 µM.
For `CC(C)c1ccc(-c2nc(-c3ncccc3C(F)(F)F)n[nH]2)cc1` [Compound 548, 2-[5-(4-Isopropyl-phenyl)-1H-[1,2,4]triazol-3-yl]-3-trifluoromethyl-pyridine], the EC50 was over 19 µM.
In the case of `Oc1ccc2ccccc2c1-c1nc(-c2ncccc2C(F)(F)F)n[nH]1` [Compound 549, 1-[5-(3-trifluoromethyl-pyridin-2-yl)-2H-[1,2,4]triazol-3-yl]-naphthalen-2-ol], the EC50 is reported as over 19 µM.
`FC(F)(F)c1cccnc1-c1n[nH]c(-c2cccc(Br)c2)n1` [Compound 550, 2-[5-(3-Bromo-phenyl)-1H-[1,2,4]triazol-3-yl]-3-trifluoromethyl-pyridine] gave an EC50 of over 19 µM.
`FC(F)(F)c1cccnc1-c1n[nH]c(-c2c(Cl)cccc2Cl)n1` [Compound 551, 2-[5-(2,6-Dichloro-phenyl)-1H-[1,2,4]triazol-3-yl]-3-trifluoromethyl-pyridine] gave an EC50 of over 19 µM.
`Fc1cc(Br)ccc1-c1nc(-c2ncccc2C(F)(F)F)n[nH]1` [Compound 552, 2-[5-(4-Bromo-2-fluoro-phenyl)-1H-[1,2,4]triazol-3-yl]-3-trifluoromethyl-pyridine] showed an EC50 of over 19 µM.
Compound `COc1ccc(Br)cc1-c1nc(-c2ncccc2C(F)(F)F)n[nH]1` [Compound 553, 2-[5-(5-Bromo-2-methoxy-phenyl)-1H-[1,2,4]triazol-3-yl]-3-trifluoromethyl-pyridine] has an EC50 of over 19 µM.
Work on `COc1ccc(O)c(-c2nc(-c3ncccc3[N+](=O)[O-])n[nH]2)c1` [Compound 554, 4-Methoxy-2-[5-(3-nitro-pyridin-2-yl)-2H-[1,2,4]triazol-3-yl]-phenol] yielded an EC50 of over 19 µM.
Compound `Nc1cccnc1-c1n[nH]c(-c2cc(Br)ccc2O)n1` [Compound 555, 2-[5-(3-amino-pyridin-2-yl)-2H-[1,2,4]triazol-3-yl]-4-bromo-phenol] has an EC50 of over 3.2 µM.
